Where a name gives a salt, the structure may show the parent alone. Read-outs that look alike come from different tables or passages of the source.
Legend:
[1] = test system: MLKL phosphorylation in HT29-L23 human colorectal adenocarcinoma cells; assay: MLKL Phosphorylation High-Content Assay; type: cell-based; settings: necroptosis induced with TNFα, SMAC mimetic and Z-VAD, 6 h, read-out: pMLKL (IC50)
How it was run: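 HT29-L23 cells were induced to necroptosis with TNFα (35 ng/mL), SMAC mimetic (700 nM) and Z-VAD (140 nM) for 6 h at 37 °C. Phospho-MLKL (S358) immunofluorescence was imaged and quantified per cell; maximal inhibition set by Nec-1s (6.25 μM), and IC50/Ymax from 4-parameter logistic fit.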

[2] = molecular target: T1, His-GST-TVMV-hRIPK1 (1-324) (Homo sapiens (Human), UniProt Q13546); assay: biochemical
T1 sequence (Q13546 1-324): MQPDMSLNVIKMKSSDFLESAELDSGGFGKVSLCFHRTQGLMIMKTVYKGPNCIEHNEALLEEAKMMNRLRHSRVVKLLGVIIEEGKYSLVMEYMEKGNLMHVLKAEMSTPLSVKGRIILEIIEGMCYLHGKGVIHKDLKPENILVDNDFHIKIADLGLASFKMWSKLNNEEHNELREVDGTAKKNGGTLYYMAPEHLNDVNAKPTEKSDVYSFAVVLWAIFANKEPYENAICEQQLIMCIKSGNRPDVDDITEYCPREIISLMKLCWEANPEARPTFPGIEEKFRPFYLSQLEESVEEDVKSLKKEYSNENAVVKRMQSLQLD
Protocol: (§1) A solution was prepared containing 0.2 nM Anti GST-Tb (Cisbio, 61GSTTLB), 90.6 nM probe and 1 nM His-GST-TVMV-hRIPK1 (1-324) in FRET Buffer (20 mM HEPES, 10 mM MgCl2, 0.015% Brij-35, 4 mM DTT, 0.05 mg/mL BSA). Using Formulatrix Tempest, the detection antibody/enzyme/probe solution (2 mL) was dispensed into wells of a 1536 plate (Black Low Binding Polystyrene 1536 Plate (Corning, 3724)) containing 10 nL of compounds of interest at appropriate concentration in DMSO. The plate was incubated at rt for 1 h. FRET was measured using the EnVision plate reader (Excitation: 340 nm, Emission: 520 nm/495 nM). Total signal (0% inhibition) was calculated from wells containing 10 nL DMSO only.

[3] = molecular target: T1, His-GST-TVMV-hRIPK1 (1-324); assay: RIPK1 HTRF Binding Assay; settings: read-out: RIPK1 HTRF (IC50); FRET probe displacement, 1 h at rt
Protocol: as §1

CNC(=O)c1n[nH]c2cc(-c3cnc(OC)c(C(=O)NC4CCCC(c5ccccc5)C4)c3)ccc12 (single isomer, unassigned) [Example 21-1, 6-{6-methoxy-5-[(3-phenylcyclohexyl)carbamoyl]pyridin-3-yl}-N-methyl-1H-indazole-3-carboxamide]
IC50 [1]: 8.3 nM
IC50 [2]: 3.5 nM

CCC(c1ccccc1)n1nnc(-c2cc(-c3ccc4c(C(=O)NC)n[nH]c4c3)cnc2OC)n1 (single isomer, unassigned) [Example 18-2, 6-(6-methoxy-5-(2-(l-phenylpropyl)-2H-tetrazol-5-yl)pyridin-3-yl)-N-methyl-1H-indazole-3-carboxamide]
IC50 [1]: 310 nM
IC50 [2]: 100 nM

[2H]C([2H])([2H])Oc1ncc(-c2ccc3c(C(=O)NC([2H])([2H])C([2H])([2H])[2H])n[nH]c3c2)cc1C(=O)N[C@@H](C)c1cc(C(F)(F)F)ccc1F [Example 226, N-[(1,1,2,2,2-deutero)ethyl]-6-(5-{[(1S)-1-[2-fluoro-5-(trifluoro-methyl)phenyl]ethyl]carbamoyl}-6-(deutero)methoxypyridin-3-yl)1H-indazole-3-carboxamide]
IC50 ([1]; Homo sapiens): 41 nM
IC50 [2]: 57 nM

CNC(=O)c1n[nH]c2cc(-c3cnc(OC)c(C(=O)NC4CCCC(c5ccccc5)C4)c3)ccc12 (single isomer, unassigned) [Example 21-3, 6-{6-methoxy-5-[(3-phenylcyclohexyl)carbamoyl]pyridin-3-yl}-N-methyl-1H-indazole-3-carboxamide]
IC50 [1]: 8.1 nM
IC50 [2]: 22 nM

[2H]C([2H])([2H])Oc1ncc(-c2ccc3c(C(=O)NC([2H])([2H])C([2H])([2H])[2H])n[nH]c3c2)cc1C(=O)N[C@@H](C)c1cc(OC(F)(F)F)ccc1F [Example 224, N-[(1,1,2,2,2-deutero)ethyl]-6-(5-{[(1S)-1-[2-fluoro-5-(trifluorometh-oxy)phenyl]ethyl]carbamoyl}-6-(deutero)methoxypyridin-3-yl)-1H-indazole-3-carboxamide]
IC50 ([1]; Homo sapiens): 12 nM
IC50 [2]: 17 nM

[2H]C([2H])([2H])Oc1ncc(-c2ccc3c(C(=O)NC([2H])([2H])C([2H])([2H])[2H])n[nH]c3c2)cc1C(=O)N[C@@H]1CN(C(=O)C2CC(F)(F)C2)C[C@@H]1F [Example 192, 6-(5-{[(3R,4S)-1-(3,3-difluorocyclo-butanecarbonyl)-4-fluoropyrrolidin-3-yl]carbamoyl}-6-(deutero)methoxy-pyridin-3-yl)-N-[(1,1,2,2,2-deutero)-ethyl]-1H-indazole-3-carboxamide]
IC50 ([1]; Homo sapiens): 430 nM
IC50 [2]: 110 nM

[2H]C([2H])([2H])Oc1ncc(-c2ccc3c(C(=O)NC([2H])([2H])C([2H])([2H])[2H])n[nH]c3c2)cc1C(=O)N[C@@H](C)c1cccc(C(F)(F)F)c1 [Example 230, N-[(1,1,2,2,2-deutero)ethyl]-6-[6-(deutero)methoxy-5-{[(1S)-1-[3-(trifluoromethyl)phenyl]ethyl]car-bamoyl}pyridin-3-yl]-1H-indazole-3-carboxamide]
IC50 ([1]; Homo sapiens): 55 nM
IC50 [2]: 11 nM

[2H]C([2H])([2H])Oc1ncc(-c2ccc3c(C(=O)NC([2H])([2H])C([2H])([2H])[2H])n[nH]c3c2)cc1C(=O)N[C@H](C)c1ccccc1C(F)(F)F [Example 235, N-[(1,1,2,2,2-deutero)ethyl]-6-[6-(deutero)methoxy-5-{[(1R)-1-[2-(trifluoromethyl)phenyl]ethyl]car-bamoyl}pyridin-3-yl]-1H-indazole-3-carboxamide]
IC50 ([1]; Homo sapiens): 48 nM
IC50 [2]: 34 nM

[2H]C([2H])([2H])Oc1ncc(-c2ccc3c(C(=O)NC([2H])([2H])C([2H])([2H])[2H])n[nH]c3c2)cc1C(=O)N[C@@H](C)CC(=O)OC(C)(C)C [Example 238, tert-butyl (3S)-3-{[5-(3-{[(1,1,2,2,2-deutero)ethyl]carbamoyl}-1H-indazol-6-yl)-2-(deutero)methoxy-pyridin-3-yl]formamido}butanoate]
IC50 ([1]; Homo sapiens): 41 nM
IC50 [2]: 47 nM

CNC(=O)c1n[nH]c2cc(-c3cnc(OC)c(C(=O)NC(C)c4ccccc4OC(F)(F)F)c3)cc(F)c12 (racemic) [Example 24, 4-fluoro-6-[6-methoxy-5-({1-[2-(trifluoromethoxy)phenyl]ethyl}carbamoyl)pyridin-3-yl]-N-methyl-1H-indazole-3-carboxamide]
IC50 ([1]; Homo sapiens): 11 nM
IC50 [2]: 5.4 nM

[2H]C([2H])([2H])Oc1ncc(-c2ccc3c(C(=O)NC4CC4)n[nH]c3c2)cc1C(=O)N[C@H](C)CC(=O)OC(C)(C)C [Example 196, tert-butyl (3R)-3-({5-[3-(cyclo-propylcarbamoyl)-1H-indazol-6-yl]-2-(deutero)methoxypyridin-3-yl}formamido)butanoate]
IC50 [1]: 19 nM
IC50 [2]: 84 nM

CNC(=O)c1n[nH]c2cc(-c3cnc(OC)c(C(=O)NC4CCCC(c5ccccc5)C4)c3)ccc12 (single isomer, unassigned) [Example 21-4, 6-{6-methoxy-5-[(3-phenylcyclohexyl)carbamoyl]pyridin-3-yl}-N-methyl-1H-indazole-3-carboxamide]
IC50 [1]: 2 nM
IC50 [2]: 2 nM

[2H]C([2H])([2H])N(C1CCC(NC(=O)c2n[nH]c3cc(-c4cnc(OC)c(C(=O)NCc5ccccc5OC(F)(F)F)c4)ccc23)CC1)C([2H])([2H])[2H] (stereo not drawn) [Example 188, N-{4-[di(deutero)methylamino]-cyclohexyl}-6-[6-methoxy-5-({[2-(trifluoromethoxy)phenyl]-methyl}carbamoyl)pyridin-3-yl]-1H-indazole-3-carboxamide]
IC50 ([1]; Homo sapiens): 130 nM
IC50 [2]: 23 nM

[2H]C([2H])([2H])Oc1ncc(-c2ccc3c(C(=O)NC([2H])([2H])C([2H])([2H])[2H])n[nH]c3c2)cc1C(=O)N[C@H](C)c1cccc(C(F)(F)F)c1 [Example 229, N-[(1,1,2,2,2-deutero)ethyl]-6-[6-(deutero)methoxy-5-{[(1R)-1-[3-(trifluoromethyl)phenyl]ethyl]car-bamoyl}pyridin-3-yl]-1H-indazole-3-carboxamide]
IC50 ([1]; Homo sapiens): 82 nM
IC50 [2]: 210 nM

CNC(=O)c1n[nH]c2cc(-c3cnc(OC)c(C(=O)NCc4ccc(F)c(C(F)(F)F)c4)c3)ccc12 [Example 104, 6-[5-({[4-fluoro-3-(trifluoro-methyl)phenyl]methyl}carbam-oyl)-6-methoxypyridin-3-yl]-N-methyl-1H-indazole-3-carboxamide]
IC50 [1]: 93 nM
IC50 [3]: 40 nM

CNC(=O)c1n[nH]c2cc(-c3cnc(OC)c(C(=O)NC(C)c4cccc(C(F)(F)F)c4)c3)ccc12 (stereo not drawn) [Example 101, 6-[6-methoxy-5-({1-[3-(tri-fluoromethyl)phenyl]ethyl}-carbamoyl)pyridin-3-yl]-N-methyl-1H-indazole-3-carbox-amide]
IC50 [1]: 19 nM
IC50 [3]: 4.5 nM

[2H]C([2H])([2H])NC(=O)c1n[nH]c2cc(-c3cnc(OC)c(C(=O)NCc4ccccc4OC(F)(F)F)c3)ccc12 [Example 153]
IC50 ([1]; Homo sapiens): 6.3 nM
IC50 [3]: 2.9 nM

CNC(=O)c1n[nH]c2cc(-c3cnc(OC)c(C(=O)NCc4ccccc4OCC4CCC4)c3)ccc12 [Example 86, 6-[5-({[2-(cyclobutylmethoxy)-phenyl]methyl}carbamoyl)-6-methoxypyridin-3-yl]-N-methyl-1H-indazole-3-carbox-amide]
IC50 [1]: 4.1 nM
IC50 [3]: 2.4 nM

CNC(=O)c1n[nH]c2cc(-c3cnc(OC)c(C(=O)NCCC(C)c4ccccc4)c3)ccc12 (stereo not drawn) [Example 37, 6-{6-methoxy-5-[(3-phenylbutyl)-carbamoyl]pyridin-3-yl}-N-methyl-1H-indazole-3-carbox-amide]
IC50 [1]: 0.3 nM
IC50 [3]: 1.7 nM

CNC(=O)c1n[nH]c2cc(-c3cnc(OC)c(C(=O)NC4CCCC(C(=O)N5CCOCC5)C4)c3)ccc12 (stereo not drawn) [Example 98, 6-(6-methoxy-5-{[3-(morpho-line-4-carbonyl)cyclohexyl]-carbamoyl}pyridin-3-yl)-N-methyl-1H-indazole-3-carbox-amide]
IC50 [1]: 46 nM
IC50 [3]: 26 nM

CNC(=O)c1n[nH]c2cc(-c3cnc(OC)c(C(=O)N4CCC[C@@H](Cc5ccc(F)cc5)C4)c3)ccc12 [Example 134, 6-{5-[(3S)-3-[(4-fluorophenyl)-methyl]piperidine-1-carbonyl]-6-methoxy-pyridin-3-yl}-N-methyl-1H-indazole-3-carbox-amide, TFA]
IC50 [1]: 7.3 nM
IC50 [3]: 17 nM

[2H]C([2H])([2H])NC(=O)c1n[nH]c2cc(-c3cnc(OC([2H])([2H])[2H])c(C(=O)N[C@@H]4CN(C(=O)C5CC(F)(F)C5)C[C@@H]4F)c3)ccc12 [Example 12, 6-(5-(((3R,4S)-1-(3,3-difluorocyclobutanecarbonyl)-4-fluoropyrrolidin-3-yl)carbamoyl)-6-methoxyd3-pyridin-3-yl)-N-methyl d3-1H-indazole-3-carboxamide]
IC50 ([1]; Homo sapiens): 400 nM
IC50 [3]: 42 nM

COc1ncc(-c2ccc3c(C(=O)NCCCN4CCCC4=O)n[nH]c3c2)cc1C(=O)NCc1ccccc1OC(F)(F)F [Example 177, 6-[6-methoxy-5-({[2-(trifluoro-methoxy)phenyl]methyl}-carbamoyl)pyridin-3-yl]-N-[3-(2-oxopyrrolidin-1-yl)propyl]-1H-indazole-3-carboxamide]
IC50 ([1]; Homo sapiens): 15 nM
IC50 [3]: 2.9 nM

CNC(=O)c1n[nH]c2cc(-c3cnc(OC)c(C(=O)NCc4ccccc4CN(C)C)c3)ccc12 [Example 54, 6-{5-[({2-[(dimethylamino)-methyl]phenyl}methyl)carbam-oyl]-6-methoxypyridin-3-yl}-N-methyl-1H-indazole-3-carboxamide]
IC50 [1]: 120 nM
IC50 [3]: 28 nM

From patent publication US12172975B2, “1H-indazole carboxamides as receptor-interacting protein kinase 1 inhibitors (RIPK1)” (BRISTOL-MYERS SQUIBB COMPANY, priority 2018, dated 2024)
